Reference: PubChem BioAssay (NCI)
Where “and” joins values, the source holds several entries; their conditions need not be identical. Identical values can stand only once.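 Interpolation was linear, between the two tested concentrations surrounding the appropriate level; five concentrations were tested over 48 hours in 96-well plates. GI50 = concentration required for 50% inhibition of growth. TGI marks complete inhibition of growth.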

What was measured:
Assay in all cases: DTP human tumour cell line panel, 48 h
SK-MEL-28 melanoma = system: SK-MEL-28 melanoma
MCF7 breast = system: MCF7 breast
HOP-92 NSCLC = system: HOP-92 NSCLC
HS 578T breast = system: HS 578T breast
RXF 393 renal = system: RXF 393 renal
NCI-H23 lung = system: NCI-H23 lung
DU-145 prostate = system: DU-145 prostate
A498 renal = system: A498 renal
HOP-62 NSCLC = system: HOP-62 NSCLC
NCI-H460 lung = system: NCI-H460 lung
SW-620 colon = system: SW-620 colon
786-0 renal = system: 786-0 renal
UO-31 renal = system: UO-31 renal
OVCAR-4 ovarian = system: OVCAR-4 ovarian

| SMILES | TGI (SK-MEL-28 melanoma) | TGI (MCF7 breast) [µM] | TGI (HOP-92 NSCLC) | TGI (HS 578T breast) [µM] | TGI (RXF 393 renal) | TGI (NCI-H23 lung) | TGI (DU-145 prostate) [µM] | TGI (A498 renal) | TGI (HOP-62 NSCLC) | TGI (NCI-H460 lung) [µM] | TGI (SW-620 colon) [µM] | TGI (786-0 renal) | TGI (UO-31 renal) | TGI (OVCAR-4 ovarian) [µM] | GI50 (SK-MEL-28 melanoma) | GI50 (HOP-92 NSCLC) | GI50 (RXF 393 renal) | GI50 (NCI-H23 lung) | GI50 (DU-145 prostate) | GI50 (HOP-62 NSCLC) |
| --- | --- | --- | --- | --- | --- | --- | --- | --- | --- | --- | --- | --- | --- | --- | --- | --- | --- | --- | --- | --- |
| CC(=O)N1N=C(c2ccc3ccccc3c2O)CC1C(=O)c1ccco1 (centres undefined) | > 100 µM | > 100 | > 100 µM | > 100 | > 100 µM | > 100 µM | > 100 | > 100 µM | > 100 µM | > 100 | > 100 | > 100 µM | > 100 µM | > 100 |  |  |  |  |  |  |
| CC1(CF)SCc2nc3ccccc3n21 (centres undefined) | > 100 µM | > 100 | > 100 µM | > 100 | > 100 µM | > 100 µM | > 100 | > 100 µM | > 100 µM | > 100 | > 100 | > 100 µM | > 100 µM |  |  |  |  |  |  |  |
| COc1cc(CNc2ccc(SC)cc2)cc(OC)c1OC | 99.4 µM and > 76.9 µM | > 100 | > 96.1 µM and 47.6 µM | > 77.7 | 39.6 µM and 42.7 µM | 44 µM and 46.7 µM | > 95.7 | 79.4 µM and 67.7 µM | > 100 µM and 61.1 µM | > 100 | > 100 | 77.2 µM and 65.8 µM | 83.1 µM and 51.1 µM | > 100 | 23.7 µM and 5.71 µM | 15.2 µM and 6.16 µM | 2.27 µM and 6.5 µM | 14.6 µM and 6.14 µM | 24.8 µM and 7.82 µM | 12.1 µM and 4.68 µM |
| Cc1ccc2nc(Cl)c(/C=N/N3C(=O)/C(=C/c4ccccc4S)N=C3c3ccccc3)cc2c1 | > 100 µM | > 100 | > 100 µM | 58 |  |  | > 100 | > 100 µM | > 100 µM | > 100 | > 100 | > 100 µM | > 100 µM | > 100 |  |  |  |  |  |  |
| O=C(NCCCCCCNCc1cccc2ccccc12)Nc1cccc2ccccc12 | > 100 µM | > 100 | > 100 µM | > 100 | > 100 µM | > 100 µM | > 100 | > 100 µM | > 100 µM | > 100 | > 100 | > 100 µM | > 100 µM | > 100 |  |  |  |  |  |  |
| CN(C)Cc1cc(C(=O)/C=C/c2ccccc2Cl)cc(CN(C)C)c1O | 27.9 µM | 26.1 | 39.6 µM | 46.3 | 41.7 µM | 35 µM | 24.8 | 29.5 µM | 26.2 µM | 18.5 | 17 | 21.4 µM | 22.4 µM |  |  |  |  |  |  |  |
| OCC1OC(n2cnc3c(Cl)nc(Nc4ccccc4)nc32)CC1O (centres undefined) |  | > 100 | 6.87 µM | 90.1 | > 100 µM | > 100 µM | > 100 | > 100 µM | > 100 µM | > 100 | > 100 | > 100 µM | 33.7 µM | > 100 |  |  |  |  |  |  |
| Cc1cc(C)cc(Nc2cc(=O)[nH]c(=O)[nH]2)c1 | > 100 µM | > 100 | > 100 µM | > 100 | > 100 µM | > 100 µM | > 100 | > 100 µM | > 100 µM | > 100 | > 100 | > 100 µM | > 100 µM | > 100 |  |  |  |  |  |  |
| CC1=NN(c2ccc(S(=O)(=O)O)cc2)C2(C1)SCC(=O)N2c1nc2ccccc2s1 (centres undefined) | > 100 µM | > 100 | > 100 µM | > 100 | > 100 µM | > 100 µM | > 100 | > 100 µM | > 100 µM | > 100 | > 100 | > 100 µM | > 100 µM | > 100 |  |  |  |  |  |  |
| COc1ccc(/C=N/N=C(\N)NO)c(O)c1 | > 10 µM | > 10 | > 10 µM | > 10 | > 10 µM | > 10 µM | > 10 | > 10 µM | > 10 µM | > 10 | > 10 | > 10 µM | > 10 µM | > 10 |  |  |  |  |  |  |
| O=C1NC(N/N=C/C(O)C(O)C(O)CO)=N/C1=C\c1ccco1 (centres undefined) | > 100 µM | > 100 | > 100 µM | > 100 | > 100 µM | > 100 µM | > 100 | > 100 µM | > 100 µM | > 100 | > 100 | > 100 µM |  | > 100 |  |  |  |  |  |  |
| COc1ccc(Nc2nc(NS(=O)(=O)c3cc(C)c(Cl)cc3S)n[nH]2)cc1 | > 100 µM | > 100 | > 100 µM | > 100 | > 100 µM | > 100 µM | > 100 | > 100 µM | > 100 µM | > 100 | > 100 | > 100 µM | > 100 µM | > 100 |  |  |  |  |  |  |
| Cc1ccc2c(=O)cc(-c3cccs3)[nH]c2n1 | > 100 µM | > 100 | > 100 µM | > 71.4 | > 62.6 µM | > 63.6 µM | > 100 | > 100 µM | > 100 µM | > 100 | > 30.1 | > 100 µM | 35.6 µM | > 100 |  |  |  |  |  |  |
| Nc1c(Cl)ncnc1N[C@@H]1C[C@H]1CO | > 100 µM | > 100 | > 100 µM | > 100 | > 100 µM | > 100 µM | > 100 | > 100 µM | > 100 µM | > 100 | > 100 | > 100 µM | > 100 µM | > 100 |  |  |  |  |  |  |
| O=c1oc2ccccc2c(Nc2ccc3c(c2)Oc2ccccc2O3)c1[N+](=O)[O-] | 50 µM | 47.7 | 35.2 µM | 82.8 | 34.6 µM | 46.1 µM | 90.1 | 59 µM | > 100 µM | > 100 | 74.9 | 38.8 µM | > 100 µM | 67 |  |  |  |  |  |  |
| COC(=O)[C@H](Cc1ccccc1)NC(=O)[C@H](Cc1ccccc1)NC(=O)[C@@H]1CCCN1C(=O)N[C@H]1C2C=CC(C2)C1C(=O)N1CCC[C@H]1C(=O)N[C@@H](C)C(=O)N[C@H](C(=O)OC)C(C)C (some centres undefined) | > 100 µM | > 100 | > 100 µM | > 100 | > 100 µM | > 100 µM | > 100 | > 100 µM | > 100 µM | > 100 | > 100 | > 100 µM | > 100 µM | > 100 |  |  |  |  |  |  |
